Assay results published in PubChem BioAssay (NCI).
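Tested at 5 concentrations; 48 h exposure; 96-well plates; endpoints linearly interpolated, else capped at highest concentration. The concentration for full growth arrest is given as TGI.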

Columns and labels:
Experiment in all cases: growth of human tumour cells (NCI), 48 h
786-0 renal = tested on: 786-0 renal
SK-OV-3 ovarian = tested on: SK-OV-3 ovarian
SNB-75 CNS = tested on: SNB-75 CNS
KM12 colon = tested on: KM12 colon
HCC-2998 colon = tested on: HCC-2998 colon
MDA-N = tested on: MDA-N
SK-MEL-2 melanoma = tested on: SK-MEL-2 melanoma
T-47D breast = tested on: T-47D breast
A549 NSCLC = tested on: A549 NSCLC
CAKI-1 renal = tested on: CAKI-1 renal
MDA-MB-435 = tested on: MDA-MB-435
A498 renal = tested on: A498 renal
NCI/ADR-RES ovarian = tested on: NCI/ADR-RES ovarian
OVCAR-5 ovarian = tested on: OVCAR-5 ovarian
HOP-62 NSCLC = tested on: HOP-62 NSCLC
NCI-H460 lung = tested on: NCI-H460 lung
ACHN renal = tested on: ACHN renal
IGROV1 ovarian = tested on: IGROV1 ovarian
OVCAR-3 ovarian = tested on: OVCAR-3 ovarian
UACC-257 melanoma = tested on: UACC-257 melanoma
HCT-15 colon = tested on: HCT-15 colon
CCRF-CEM leukemia = tested on: CCRF-CEM leukemia
SN12C renal = tested on: SN12C renal
SF-268 CNS = tested on: SF-268 CNS
U251 CNS = tested on: U251 CNS
SW-620 colon = tested on: SW-620 colon
SF-539 CNS = tested on: SF-539 CNS
MALME-3M melanoma = tested on: MALME-3M melanoma
HT29 colon = tested on: HT29 colon
SK-MEL-5 melanoma = tested on: SK-MEL-5 melanoma
SR leukemia = tested on: SR leukemia
OVCAR-4 ovarian = tested on: OVCAR-4 ovarian
MOLT-4 leukemia = tested on: MOLT-4 leukemia
MDA-MB-231 breast = tested on: MDA-MB-231 breast
COLO 205 colon = tested on: COLO 205 colon
HOP-92 NSCLC = tested on: HOP-92 NSCLC
PC-3 prostate = tested on: PC-3 prostate
SK-MEL-28 melanoma = tested on: SK-MEL-28 melanoma
RXF 393 renal = tested on: RXF 393 renal
HCT-116 colon = tested on: HCT-116 colon
RPMI-8226 leukemia = tested on: RPMI-8226 leukemia
NCI-H226 lung = tested on: NCI-H226 lung
MCF7 breast = tested on: MCF7 breast
NCI-H522 lung = tested on: NCI-H522 lung
OVCAR-8 ovarian = tested on: OVCAR-8 ovarian
K-562 leukemia = tested on: K-562 leukemia
TK-10 renal = tested on: TK-10 renal
HS 578T breast = tested on: HS 578T breast
SF-295 CNS = tested on: SF-295 CNS
M14 melanoma = tested on: M14 melanoma
DU-145 prostate = tested on: DU-145 prostate
UACC-62 melanoma = tested on: UACC-62 melanoma
LOX IMVI melanoma = tested on: LOX IMVI melanoma
HL-60(TB) leukemia = tested on: HL-60(TB) leukemia
NCI-H23 lung = tested on: NCI-H23 lung
EKVX NSCLC = tested on: EKVX NSCLC
SNB-19 CNS = tested on: SNB-19 CNS
UO-31 renal = tested on: UO-31 renal

In the case of `N#Cc1nc(CN2C(=O)c3ccccc3C2=O)oc1N`, the TGI (786-0 renal) is reported as > 100 µM, the TGI (SK-OV-3 ovarian) is reported as > 100 µM and the TGI (SNB-75 CNS) is reported as > 100 µM. The TGI (KM12 colon) was > 100 µM, the TGI (HCC-2998 colon) was > 100 µM and the TGI (MDA-N) was > 100 µM. The TGI (SK-MEL-2 melanoma) was > 100 µM, the TGI (T-47D breast) was > 100 µM and the TGI (A549 NSCLC) was > 100 µM. The TGI (CAKI-1 renal) was > 100 µM, the TGI (MDA-MB-435) was > 100 µM and the TGI (A498 renal) was > 100 µM. For the same compound, the TGI (NCI/ADR-RES ovarian) was > 100 µM, the TGI (OVCAR-5 ovarian) was > 100 µM and the TGI (HOP-62 NSCLC) was > 100 µM. For the same compound, the TGI (NCI-H460 lung) was > 100 µM, the TGI (ACHN renal) was > 100 µM and the TGI (IGROV1 ovarian) was > 100 µM. For the same compound, the TGI (OVCAR-3 ovarian) was > 100 µM, the TGI (UACC-257 melanoma) was > 100 µM and the TGI (HCT-15 colon) was > 100 µM. For the same compound, the TGI (CCRF-CEM leukemia) was > 100 µM, the TGI (SN12C renal) was > 100 µM and the TGI (SF-268 CNS) was > 100 µM. For the same compound, the TGI (U251 CNS) was > 100 µM, the TGI (SW-620 colon) was > 100 µM and the TGI (SF-539 CNS) was > 100 µM. For the same compound, the TGI (MALME-3M melanoma) was > 100 µM, the TGI (HT29 colon) was > 100 µM and the TGI (SK-MEL-5 melanoma) was > 100 µM. The TGI (SR leukemia) was > 100 µM, the TGI (OVCAR-4 ovarian) was > 100 µM and the TGI (MOLT-4 leukemia) was > 100 µM. The TGI (MDA-MB-231 breast) was > 100 µM, the TGI (COLO 205 colon) was > 100 µM and the TGI (HOP-92 NSCLC) was > 100 µM. The TGI (PC-3 prostate) was > 100 µM, the TGI (SK-MEL-28 melanoma) was > 100 µM and the TGI (RXF 393 renal) was > 100 µM. For the same compound, the TGI (HCT-116 colon) was > 100 µM, the TGI (RPMI-8226 leukemia) was > 100 µM and the TGI (NCI-H226 lung) was > 100 µM. The TGI (MCF7 breast) was > 100 µM, the TGI (NCI-H522 lung) was > 100 µM and the TGI (OVCAR-8 ovarian) was > 100 µM. The TGI (K-562 leukemia) was > 100 µM, the TGI (TK-10 renal) was > 100 µM and the TGI (HS 578T breast) was > 100 µM. For the same compound, the TGI (SF-295 CNS) was > 100 µM, the TGI (M14 melanoma) was > 100 µM and the TGI (DU-145 prostate) was > 100 µM.

For `C#CC(O)/C=C/C(O)CCCC(O)CC#CC(O)C#CCCCCC(O)/C=C/CCCC(=O)CCCCCCCCCCCCCCCC(O)C(O)C#CC(=O)O` (stereo not given), the TGI (786-0 renal) was > 25 µM, the TGI (SK-OV-3 ovarian) was > 25 µM and the TGI (SNB-75 CNS) was > 25 µM. The TGI (KM12 colon) was > 25 µM, the TGI (HCC-2998 colon) was > 25 µM and the TGI (MDA-N) was > 25 µM. The TGI (UACC-62 melanoma) was > 25 µM, the TGI (SK-MEL-2 melanoma) was > 25 µM and the TGI (T-47D breast) was > 25 µM. For the same compound, the TGI (A549 NSCLC) was > 25 µM, the TGI (CAKI-1 renal) was > 25 µM and the TGI (MDA-MB-435) was > 25 µM. The TGI (LOX IMVI melanoma) was 10.4 µM, the TGI (NCI/ADR-RES ovarian) was > 25 µM and the TGI (OVCAR-5 ovarian) was > 25 µM. For the same compound, the TGI (HOP-62 NSCLC) was > 25 µM, the TGI (NCI-H460 lung) was > 25 µM and the TGI (ACHN renal) was > 25 µM. For the same compound, the TGI (IGROV1 ovarian) was > 25 µM, the TGI (UACC-257 melanoma) was > 25 µM and the TGI (HCT-15 colon) was > 25 µM. The TGI (CCRF-CEM leukemia) was > 25 µM, the TGI (SN12C renal) was > 25 µM and the TGI (SF-268 CNS) was > 25 µM. For the same compound, the TGI (HL-60(TB) leukemia) was > 25 µM, the TGI (U251 CNS) was > 25 µM and the TGI (MALME-3M melanoma) was > 25 µM. The TGI (HT29 colon) was > 25 µM, the TGI (SK-MEL-5 melanoma) was > 25 µM and the TGI (NCI-H23 lung) was > 25 µM. The TGI (SR leukemia) was > 25 µM, the TGI (OVCAR-4 ovarian) was > 25 µM and the TGI (MOLT-4 leukemia) was > 25 µM. For the same compound, the TGI (MDA-MB-231 breast) was > 25 µM, the TGI (COLO 205 colon) was > 25 µM and the TGI (HOP-92 NSCLC) was > 25 µM. For the same compound, the TGI (PC-3 prostate) was > 25 µM, the TGI (SK-MEL-28 melanoma) was > 25 µM and the TGI (EKVX NSCLC) was > 25 µM. The TGI (RXF 393 renal) was > 25 µM, the TGI (HCT-116 colon) was > 25 µM and the TGI (SNB-19 CNS) was > 25 µM. The TGI (RPMI-8226 leukemia) was > 25 µM, the TGI (NCI-H226 lung) was > 25 µM and the TGI (MCF7 breast) was > 25 µM. The TGI (NCI-H522 lung) was 17.1 µM, the TGI (OVCAR-8 ovarian) was > 25 µM and the TGI (UO-31 renal) was > 25 µM. The TGI (K-562 leukemia) was > 25 µM, the TGI (TK-10 renal) was > 25 µM and the TGI (HS 578T breast) was > 25 µM. The TGI (SF-295 CNS) was > 25 µM, the TGI (M14 melanoma) was > 25 µM and the TGI (DU-145 prostate) was > 25 µM.
